Columns and labels:
Assay type in all cases: in vivo
Phaedon cochleariae = Phaedon cochleariae - spray test; conditions: Phaedon cochleariae, foliar, 168 h; application rate 100 g/ha; larvae on Chinese cabbage leaf discs; after 7 days; read-out: efficacy
Description: Phaedon cochleariae—Spray Test
(§1) Solvent: 78.0 parts by weight of acetone and 1.5 parts by weight of dimethylformamide
(§2) Emulsifier: alkylaryl polyglycol ether
(§3) To produce an appropriate active ingredient formulation, 1 part by weight of active ingredient is dissolved using the specified parts by weight of solvent and made up with water containing an emulsifier concentration of 1000 ppm until the desired concentration is attained. To produce further test concentrations, the preparation is diluted with emulsifier-containing water.
Discs of Chinese cabbage leaves (Brassica pekinensis) are sprayed with an active ingredient formulation of the desired concentration and, after drying, populated with larvae of the mustard beetle (Phaedon cochleariae).
After 7 days, efficacy in % is determined. 100% means that all the beetle larvae have been killed; 0% means that no beetle larvae have been killed.

Boophilus microplus = Boophilus microplus - injection test; conditions: Rhipicephalus microplus, 168 h; application rate 20 μg/animal; injected into engorged adult female ticks; laying of fertile eggs, after 7 days; read-out: efficacy
Outline: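 DMSO formulation, 1 μl intra-abdominal injection, n=5 engorged adult females; climate-controlled room; score fertile eggs d7, unclear eggs held until larval hatch (~42 d); % efficacy, 100% = no fertile eggs.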

Spodoptera frugiperda = Spodoptera frugiperda - spray test; conditions: foliar, 168 h, application rate 100 g/ha, caterpillars on maize leaf discs, after 7 days, read-out: efficacy
Description: Spodoptera frugiperda—Spray Test
as §1, §2, §3
Leaf discs of maize (Zea mays) are sprayed with an active ingredient formulation of the desired concentration and, after drying, populated with caterpillars of the armyworm (Spodoptera frugiperda).
After 7 days, efficacy in % is determined. 100% means that all the caterpillars have been killed; 0% means that no caterpillars have been killed.

[1] = test system: Boophilus microplus Parkhurst strain, SP-resistant; experiment: Boophilus microplus - dip test; conditions: application rate 100 ppm; dip of engorged adult female ticks; laying of fertile eggs, after 7 days
Outline: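 Adult engorged females of SP-resistant Parkhurst strain (8–10 per tube) fully immersed in compound diluted in water from a DMSO solution. Ticks then kept on filter discs in a climate-controlled room; efficacy scored from fertile egg laying at 7 days, with unclear eggs held about 42 days until hatch (100% = no fertile eggs).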

Cc1cc(C(F)(C(F)(F)F)C(F)(F)F)cc(C)c1-n1cc(-c2ccc(Cl)c(C(=O)NC3CC3)c2)cn1 [I-T3-1, 2-chloro-N-cyclopropyl-5-[1-[2,6-dimethyl-4-[1,2,2,2-tetrafluoro-1-(trifluoromethyl)ethyl]phenyl]pyrazol-4-yl]benzamide]
100%: pest or weed control at 100 g/ha (Phaedon cochleariae) | pest or weed control at 0.02 mg (Boophilus microplus) | pest or weed control at 100 g/ha (Spodoptera frugiperda) | efficacy [1]

Source: patent US9758485B2, “Compounds for controlling arthropods” (priority 2013, dated 2017)
